Legend:
[1] = Plasma stability, 24 h incubation with plasma (HPLC); type: in vitro ADME
Method: Zn8_DM1: 0H VS. 24H in plasma.
Zn10_DM4: 0H VS. 24H in plasma.
Supporting Figure S1. Incubation of Linker-drug 3 and 4, conjugates Zn8_DM1 and
Zn10_DM4, DM1 and DM4 with plasma for 24 hrs. HPLC condition is listed below. […]

[2] = test system: sorafenib-resistant hepatocellular carcinoma; experiment: Oncogene-induced, sorafenib-resistant HCC mouse model; type: in vivo
Method: Cancer cells suspended in RPMI 1640 medium (11835-030, Thermo Fisher Scientific, Waltham, MA, USA) were mixed with Matrigel™ (356237, BD Biosciences, Franklin Lakes, NJ, USA) in a 1:1 ratio. Human triple-negative breast cancer HCC1806 (1 × 10^6 cells) cells were inoculated subcutaneously into the left flank of 6-week-old female nude mice (BioLASCO Taiwan, Taipei, Taiwan) using a 1 mL syringe with a 24G needle (AN-2425R, Terumo Medical Corp., Tokyo, Japan). Tumor dimensions were measured twice weekly using electronic calipers (FOW54-200-777, PRO-MAX), and the volume of tumor grown subcutaneously (mm^3) was calculated by the formula Volume = (length × width^2)/2. A combination of 10% DMA/20% Cremophor EL/70% 5% dextrose injection (D5W) was formulated to treat HCC1806 xenograft tumors. Mice with HCC1806 tumors were grouped and administered the indicated dosing regimen of 1 mg/kg for the conjugate and 0.3 mg/kg for the cytotoxic payloads DM1 and DM4 twice-weekly (day 1 and day 4) for 2 weeks when the mean tumor volume was approximately 200–250 mm^3 or 850–900 mm^3 (large tumors). The conjugate dose of 2 mg/kg was administered weekly for the large tumor study. The body weight and tumor volume of mice were measured twice weekly. In addition, a previously reported oncogene-induced, sorafenib-resistant HCC mouse model was used in the current study to examine the antitumor activities of synthesized compounds. Briefly, plasmids including transposase (pCMV(CAT)T7-SB100), human Akt1, and luciferase (pKT2/CLP-AKT-2A-OVA-HBc-HBs-LUC) and the N-Ras V12 mutant (pT/Caggs-NRASV12) were hydrodynamically injected (HDI) and the liver was monitored for the appearance of HCC. HCC mice with a total flux of more than 1 × 10^9 photons/s from IVIS imaging were used as treatment conjugates. The indicated conjugate was administered intravenously at 1 mg/kg 3 times per week over 2 weeks. IVIS imaging was repeatedly performed to follow tumor progression, and tumor tissue from treated HCC mice was collected for histological examination and RNA extraction after administration.
Paraffin-embedded liver/tumor tissue sections were de-paraffined, re-hydrated, and then subjected to heat-induced antigen retrieval, followed by incubation with primary Abs. The primary antibodies used to detect Ki-67 and CD8α were SP6 (Abcam, Cambridge, UK) and D4W2Z (Cell Signaling Technology, Danvers, MA, USA), respectively. ImmPRESS anti-rat Ig, ImmPRESS anti-rabbit Ig, polymer detection kit, DAB peroxidase substrate kit (Vector laboratories, Burlingame, CA, USA), and liquid permanent red substrate (Dako, Glostrup, Denmark) and Hematoxylin Gill II (Leica, Wetzlar, Germany) were used for detection and visualization. Images were taken by NHRI’s Pathology Core Laboratory using an automated digital slide scanner Pannoramic MIDI with a Plan-Apochromat 20×/0.8 objective (3D HISTECH, Budapest, Hungary).
Total RNA was extracted from conjugate-treated or vehicle-treated HCC mouse tumor tissue using the RNA-easy kit (QIAGEN, Hilden, Germany). The concentration (absorbance at 260 nm) and purity (A260/280 and A260/230 ratios) of the extracted RNA was measured spectrophotometrically; RNA integrity was further determined using the 2100 Bioanalyzer System (Agilent RNA was further determined for RNA integrity using a 2100 Bioanalyzer System (Agilent Technologies, Santa Clara, CA, USA). RNA was hybridized to the barcode probe provided in the nCounter Mouse Pan-Cancer Immunoassay Kit (NanoString Technologies, Seattle, WA, USA) and then used to measure mRNA expression of 770 genes associated with the immune response. Nanostring nSolver 4.0 and nCounter Advanced Analysis 2.0 software (NanoString Technologies) was used for data processing, immune cell analysis, and pathway scoring according to the developer’s instructions.

[3] = Pharmacokinetic study, single intravenous dose; type: in vivo, male ICR mice
Method: Six-week-old male ICR mice from BioLASCO Taiwan were divided into three groups and administered intravenously at a 5 mg/kg dose. Blood samples were taken from each animal at time points 0.003, 0.083, 0.25, 0.5, 1, 2, 4, 6, 8, and 24 h and stored on ice (0–4 °C). The plasma was separated from the blood by centrifugation (in a Beckman Allegra 6R at 3000 rpm, 4 °C for 15 min) and stored under freezing conditions (−20 °C). Plasma and harvested tumor samples were stored at −80 °C until use. Fifty microliters of mouse plasma or tumor samples homogenized with ddH2O at a dilution ratio of 1:3 (w/v) with MiniBeadbeater-16 (BioSpec Products Inc., Bartlesville, OK, USA) were mixed with 100 μL of acetonitrile containing 250 ng/mL BPR0L187. The mixture was vortexed for 30 s and then centrifuged at 15,000× g for 20 min. The supernatant was transferred to a clean test tube, and 15 µL of supernatant was injected into the LC/MS/MS. Plasma samples were analyzed by liquid chromatography-tandem mass spectrometry (LC/MS/MS). The chromatography system was an Agilent 1200 series liquid chromatography system and an Agilent ZORBAX Eclipse XDB-C8 column (5 µm, 3.0 × 150 mm) connected with an MDS Sciex API4000 tandem mass spectrometer equipped with an ESI in forwarding scan mode at 600 °C. Data acquisition was performed by multiple reaction monitoring (MRM). A gradient system was used to separate the analytes from the IS. Mobile phase A was a 10 mM aqueous ammonium acetate solution containing 0.1% formic acid. Mobile phase B was acetonitrile. The gradient profile was as follows. 0.0–1.1 min, 50% B; 1.2–3.7 min, 55% B-90% B; 3.8–5.0 min, 90% B-50% B. The flow rate was 1.5 mL/min. The autosampler was set to inject 15 µL of the sample every 5 min.

[4] = Nanostring mRNA analysis vs vehicle
[5] = Nanostring pathway scoring vs vehicle
[6] = male ICR mice (n = 3), 5 mg/kg i.v.

Compound: COc1cc2cc(c1Cl)N(C)C(=O)CC(OC(=O)C(C)N(C)C(=O)CCSC(=O)c1ccc(CN(CCOCCOCCNC(=O)c3ccc(CN(CCCCOc4cc(CN(Cc5ccccn5)Cc5ccccn5)cc(CN(Cc5ccccn5)Cc5ccccn5)c4)C(=O)C4(c5ccc(Cl)cc5)CCCCC4)cc3)C(=O)C3(c4ccc(Cl)cc4)CCCCC3)cc1)C1(C)OC1C(C)C1CC(O)(NC(=O)O1)C(OC)C=CC=C(C)C2.O=[N+]([O-])[O-].O=[N+]([O-])[O-].O=[N+]([O-])[O-].O=[N+]([O-])[O-].[Zn+2].[Zn+2] (stereo not shown) [Zn8_DM1]
- cleavage of the maytansinoid after incubation with plasma [1]: No cleavage
- anti-HCC tumor growth (flux of luciferase activity) ([2]; 1 mg/kg i.v. 3 times a week for 2 weeks): potent anti-HCC tumor growth
- CD8+ T-cell infiltration in tumors ([2]; CD8α immunohistochemistry): significant increase
- CXCL9 gene expression in tumor tissue [2, 4]: significant upregulation
- PD-L1 gene expression in tumor tissue [2, 4]: elevated PD-L1 gene expression
- STAT1 gene expression in tumor tissue [2, 4]: elevated
- NK cell function score in TME [2, 5]: significant improvement
- T-cell function score in TME [2, 5]: significant improvement
- interferon score in TME [2, 5]: significant improvement
- Ki-67 staining of tumor samples ([2]; immunohistochemistry, treated tumor): marked reduction in Ki-67 staining
- liver tumor burden vs vehicle ([2]; livers harvested a week post last dose): less tumor burden
- AUC (0–24 h), intact conjugate [3, 6]: Intact Conjugate: 161,538 ng/mL·h
- CL [3, 6]: 0.5 mL/min/kg
- Vss [3, 6]: 0.6 L/kg
- AUC (0–24 h), released payload (DM1 or DM4) ([3]; male ICR mice (n = 3), 5 mg/kg i.v. of the conjugate): DM1: 500 ng/mL·h
- AUC ratio between intact conjugate and released payload ([3]; within 24 h in circulation, 5 mg/kg i.v.): large AUC ratio

Source: paper PMC9323955, “Synthesis and Evaluation of Small Molecule Drug Conjugates Harnessing Thioester-Linked Maytansinoids” (Pharmaceutics, 2022)
